# Columns and labels:
# [1] = biological target: T1, human P2X4 (Homo sapiens, UniProt Q99571); experiment: Human P2X4 HEK Cell FLIPR Assay; type: cell-based; conditions: HEK293 stably expressing human P2X4, agonist Bz-ATP 3 μM (EC80); for IC50: read-out: Human P2X4 HEK Cells (FLIPR Assay) avg IC50
# T1 construct: expressed in transfected cells
# T1 sequence (Q99571 1-388): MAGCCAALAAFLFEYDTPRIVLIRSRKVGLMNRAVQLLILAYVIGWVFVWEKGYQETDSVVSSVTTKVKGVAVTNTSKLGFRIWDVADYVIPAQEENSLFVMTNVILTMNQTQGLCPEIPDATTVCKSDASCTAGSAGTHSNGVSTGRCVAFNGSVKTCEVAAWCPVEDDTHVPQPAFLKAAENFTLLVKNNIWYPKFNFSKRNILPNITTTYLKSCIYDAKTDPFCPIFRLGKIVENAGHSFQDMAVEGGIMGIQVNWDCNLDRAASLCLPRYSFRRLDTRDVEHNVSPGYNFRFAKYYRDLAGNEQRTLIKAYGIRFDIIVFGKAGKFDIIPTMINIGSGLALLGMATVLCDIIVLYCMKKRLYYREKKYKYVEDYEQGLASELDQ
# Outline: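 Compounds were preincubated 30 min at room temperature on Fluo8-AM-loaded HEK293 cells stably expressing human P2X4. The response was the calcium fluorescence rise on Bz-ATP addition.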
# [2] = biological target: T2, rat P2X4 (Rattus norvegicus, UniProt P51577); experiment: FLIPR Method for Rat P2X4 1321N1 Astrocytoma Cells; type: cell-based; conditions: 1321N1 stably expressing rat P2X4; agonist MgATP 5 μM (EC80)
# T2 construct: expressed in transfected cells
# T2 sequence (P51577 1-388): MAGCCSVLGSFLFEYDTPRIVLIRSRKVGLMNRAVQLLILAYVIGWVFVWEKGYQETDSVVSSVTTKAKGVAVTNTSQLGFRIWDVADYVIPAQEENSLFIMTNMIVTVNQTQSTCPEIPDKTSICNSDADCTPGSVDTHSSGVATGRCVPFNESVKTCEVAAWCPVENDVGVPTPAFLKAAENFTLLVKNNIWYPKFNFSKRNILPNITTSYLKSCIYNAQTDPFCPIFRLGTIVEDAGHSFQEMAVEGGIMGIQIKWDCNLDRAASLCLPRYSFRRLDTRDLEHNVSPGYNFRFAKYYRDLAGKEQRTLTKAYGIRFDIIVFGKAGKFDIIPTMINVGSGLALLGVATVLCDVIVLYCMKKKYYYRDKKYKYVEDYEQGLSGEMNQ
# Method: Compounds were tested on a 1321N1 cell line stably expressing rat P2X4. Cells were cultured on collagen-I-coated 384-well plates at a density of 10,000 cells/well and incubated overnight at 37° C., 5% CO2. P2X4 function was assessed by measuring intracellular calcium fluxes caused by Magnesium-ATP (MgATP) using the calcium-chelating dye Fluo8-AM (Molecular Devices) with the Fluorescent Imaging Plate Reader Tetra (FLIPR^Tetra; Molecular Devices CA). On the day of the assay, the medium was removed and the cells were incubated for 30 minutes at 37° C. and 5% CO2 in 30 μl of dye buffer (Hank's balanced salt solution, 10 mM HEPES, 1.8 mM CaCl2, 1 mM MgCl2, 2 mM probenecid, 5 mM D-glucose monohydrate, 5 μM Fluo8-AM, pH=7.4).
# Compounds diluted in probenecid buffer (Hank's balanced salt solution, 10 mM HEPES, 1.8 mM CaCl2, 1 mM MgCl2, 2 mM probenecid, 5 mM D-glucose monohydrate, pH=7.4) at ten concentrations ranging from 25 μM to 1 nM (final concentration) were dispensed and incubated for 30 minutes at room temperature. The agonist, MgATP (Sigma-Aldrich Chemie GmbH, DE), was added at a final concentration of 5 μM, representing the EC80 routinely determined. The final assay volume was 50 μl and final DMSO concentration was 0.5%.
# The fluorescence intensity reflecting intracellular calcium changes was recorded before and after MgATP addition, at an excitation and emission wavelengths of 470-495 nm and 515-575 nm respectively.
# The compounds were tested in triplicates and fluorescence intensity raw data normalized to the agonist control and fitted to the four-parameter logistic equation:
# Y=Bottom+(Top−Bottom)/(1+10^((Log IC50−X)*HillSlope))
# Assay plate acceptance was based on the signal window (S/B)[…] and the reference compound pIC50 within ±[…] the mean of historic pIC50 of the compound. Failure to meet two of the three criteria determined exclusion of the plate's results. In Table 10 below the results for the assays are reported
Compound,Human P2X4 HEK Cells (FLIPR Assay) avg Efficacy [1],IC50 [1],IC50 [2],Rat P2X4 1321N1 Astrocytoma Cells (FLIPR Assay) avg Efficacy [2]
"CC(=O)N(c1ccc(F)c(F)c1)c1cc(NC(=O)Cc2ccccc2Cl)ccn1 [Example 1, N-{4-[2-(2-chlorophenyl)acetamido]pyridin-2-yl}-N-(3,4-difluorophenyl)acetamide]",89%,224 nM,96.7 nM,82%
"CC(=O)N(c1cccc(C#N)c1)c1cc(NC(=O)Cc2ccccc2Cl)ccn1 [Example 13, N-{4-[2-(2-chlorophenyl)acetamido]pyridin-2-yl}-N-(3-cyanophenyl)acetamide]",96%,289 nM,790 nM,93%
"CC(=O)N(c1cccc(C#N)c1)c1cc(NC(=O)Cc2c(Cl)cccc2Cl)ccn1 [Example 14, N-(3-cyanophenyl)-N-{4-[2-(2,6-dichlorophenyl)acetamido]pyridin-2-yl)acetamide]",100%,243 nM,201 nM,98%
"CC(=O)N(c1ccc(F)c(C#N)c1)c1cc(NC(=O)Cc2cccc(F)c2Cl)ccn1 [Example 23, N-{4-[2-(2-chloro-3-fluorophenyl)acetamido]pyridin-2-yl}-N-(3-cyano-4-fluorophenyl)acetamide]",99%,356 nM,483 nM,96%
"CC(=O)N(c1ccccc1)c1cc(NC(=O)Cc2ccccc2Cl)ccn1 [Example 25, N-{4-[2-(2-chlorophenyl)acetamido]pyridin-2-yl}-N-phenylacetamide]",100%,524 nM,851 nM,100%
"CC(=O)N(c1ccccc1)c1cc(NC(=O)Cc2c(Cl)cccc2Cl)ccn1 [Example 27, N-{4-[2-(2,6-dichlorophenyl)acetamido]pyridin-2-yl}-N-phenylacetamide]",97%,242 nM,652 nM,99%
"CC(=O)N(c1ccc(F)cc1)c1cc(NC(=O)Cc2cccc(C)c2C)ccn1 [Example 29, N-{4-[2-(2,3-dimethylphenyl)acetamido]pyridin-2-yl}-N-(4-fluorophenyl)acetamide]",91%,391 nM,92.5 nM,77%
"CC(=O)N(c1ccc(F)cc1)c1cc(NC(=O)Cc2ccccc2C(F)(F)F)ccn1 [Example 30, N-(4-fluorophenyl)-N-(4-{2-[2-(trifluoromethyl)phenyl]acetamido}pyridin-2-yl)acetamide]",98%,384 nM,727 nM,96%
"CC(=O)N(c1ccc(F)cc1)c1cc(NC(=O)Cc2cccc(F)c2C(F)(F)F)ccn1 [Example 32, N-(4-fluorophenyl)-N-(4-{2-[3-fluoro-2-(trifluoromethyl)phenyl]acetamido}pyridin-2-yl)acetamide]",101%,355 nM,801 nM,100%
"CC(=O)N(c1cc(F)cc(F)c1)c1cc(NC(=O)Cc2ccc(F)cc2Cl)cnn1 [Example 207, N-{5-[2-(2-chloro-4-fluorophenyl)acetamido]pyridazin-3-yl}-N-(3,5-difluorophenyl)acetamide]",96%,477 nM,,
"CC(=O)N(c1cc(F)cc(F)c1)c1cc(NC(=O)Cc2c(F)cccc2Cl)cnn1 [Example 208, N-{5-[2-(2-chloro-6-fluorophenyl)acetamido]pyridazin-3-yl}-N-(3,5-difluorophenyl)acetamide]",91%,669 nM,,

# More lines, in order of falling IC50 [1], values ahead:
Human P2X4 HEK Cells (FLIPR Assay) avg Efficacy [1],IC50 [1],IC50 [2],Rat P2X4 1321N1 Astrocytoma Cells (FLIPR Assay) avg Efficacy [2],Compound
93%,723 nM,1540 nM,98%,"CC(=O)N(c1ccc(F)cc1)c1cc(NC(=O)Cc2c(Cl)cccc2C#N)ccn1 [Example 33, N-{4-[2-(2-chloro-6-cyanophenyl)acetamido]pyridin-2-yl}-N-(4-fluorophenyl)acetamide]"
102%,660 nM,649 nM,101%,"CC(=O)N(c1ccccc1)c1cc(NC(=O)Cc2ccc(F)cc2Cl)ccn1 [Example 26, N-{4-[2-(2-chloro-4-fluorophenyl)acetamido]pyridin-2-yl}-N-phenylacetamide]"
98%,482 nM,217 nM,95%,"CC(=O)N(c1ccc(F)c(C#N)c1)c1cc(NC(=O)Cc2ccc(F)cc2Cl)ccn1 [Example 22, N-{4-[2-(2-chloro-4-fluorophenyl)acetamido]pyridin-2-yl}-N-(3-cyano-4-fluorophenyl)acetamide]"
94%,408 nM,441 nM,88%,"CC(=O)N(c1cccc(C#N)c1)c1cc(NC(=O)Cc2c(F)cccc2Cl)ccn1 [Example 15, N-{4-[2-(2-chloro-6-fluorophenyl)acetamido]pyridin-2-yl}-N-(3-cyanophenyl)acetamide]"
100%,397 nM,855 nM,100%,"CC(=O)N(c1cccc(C(F)F)c1)c1cc(NC(=O)Cc2cccc(F)c2Cl)ccn1 [Example 4, N-{4-[2-(2-chloro-3-fluorophenyl)acetamido]pyridin-2-yl}-N-[3-(difluoromethyl)phenyl]acetamide]"
102%,386 nM,440 nM,100%,"CC(=O)N(c1cccc(C(F)F)c1)c1cc(NC(=O)Cc2c(Cl)cccc2Cl)ccn1 [Example 5, N-{4-[2-(2,6-dichlorophenyl)acetamido]pyridin-2-yl}-N-[3-(difluoromethyl)phenyl]acetamide]"
100%,346 nM,174 nM,99%,"CC(=O)N(c1ccc(F)c(C#N)c1)c1cc(NC(=O)Cc2c(Cl)cccc2Cl)ccn1 [Example 24, N-(3-cyano-4-fluorophenyl)-N-{4-[2-(2,6-dichlorophenyl)acetamido]pyridin-2-yl}acetamide]"
91%,343 nM,374 nM,90%,"CC(=O)N(c1ccc(F)c(C#N)c1)c1cc(NC(=O)Cc2ccccc2Cl)ccn1 [Example 21, N-{4-[2-(2-chlorophenyl)acetamido]pyridin-2-yl}-N-(3-cyano-4-fluorophenyl)acetamide]"

# — US20230257351A1, “SUBSTITUTED N-[…] HAVING P2X4 RECEPTOR ANTAGONISTIC ACTIVITY” (Bayer Aktiengesellschaft, priority 2020, published 2023)
